Source: PubChem BioAssay (NCI)
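Cells were grown in 96-well plates and exposed to each compound for 48 hours at five concentrations; endpoints were interpolated linearly between bracketing concentrations, or set to the highest concentration if not reached. At the TGI there is no net growth.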

Columns and labels:
Assay in all cases: inhibition of tumour cell growth, NCI panel, 48 h
OVCAR-8 ovarian = tested on: OVCAR-8 ovarian
A549 NSCLC = tested on: A549 NSCLC
RXF 393 renal = tested on: RXF 393 renal
EKVX NSCLC = tested on: EKVX NSCLC
786-0 renal = tested on: 786-0 renal
SK-MEL-5 melanoma = tested on: SK-MEL-5 melanoma
HT29 colon = tested on: HT29 colon
SF-295 CNS = tested on: SF-295 CNS
SNB-75 CNS = tested on: SNB-75 CNS
SK-MEL-2 melanoma = tested on: SK-MEL-2 melanoma
NCI-H226 lung = tested on: NCI-H226 lung
SF-268 CNS = tested on: SF-268 CNS
U251 CNS = tested on: U251 CNS
PC-3 prostate = tested on: PC-3 prostate
SNB-19 CNS = tested on: SNB-19 CNS
CAKI-1 renal = tested on: CAKI-1 renal
HOP-62 NSCLC = tested on: HOP-62 NSCLC
ACHN renal = tested on: ACHN renal
NCI-H23 lung = tested on: NCI-H23 lung
NCI-H522 lung = tested on: NCI-H522 lung
NCI-H460 lung = tested on: NCI-H460 lung
HL-60(TB) leukemia = tested on: HL-60(TB) leukemia
DU-145 prostate = tested on: DU-145 prostate
SN12C renal = tested on: SN12C renal
OVCAR-4 ovarian = tested on: OVCAR-4 ovarian
UACC-257 melanoma = tested on: UACC-257 melanoma
MDA-MB-231 breast = tested on: MDA-MB-231 breast
MDA-N = tested on: MDA-N
KM12 colon = tested on: KM12 colon
HCT-15 colon = tested on: HCT-15 colon
K-562 leukemia = tested on: K-562 leukemia
M14 melanoma = tested on: M14 melanoma
A498 renal = tested on: A498 renal
TK-10 renal = tested on: TK-10 renal
HS 578T breast = tested on: HS 578T breast
UACC-62 melanoma = tested on: UACC-62 melanoma
HOP-92 NSCLC = tested on: HOP-92 NSCLC
OVCAR-5 ovarian = tested on: OVCAR-5 ovarian
UO-31 renal = tested on: UO-31 renal
OVCAR-3 ovarian = tested on: OVCAR-3 ovarian
IGROV1 ovarian = tested on: IGROV1 ovarian
SF-539 CNS = tested on: SF-539 CNS
MOLT-4 leukemia = tested on: MOLT-4 leukemia
RPMI-8226 leukemia = tested on: RPMI-8226 leukemia
T-47D breast = tested on: T-47D breast
SW-620 colon = tested on: SW-620 colon
MALME-3M melanoma = tested on: MALME-3M melanoma
BT-549 breast = tested on: BT-549 breast
HCT-116 colon = tested on: HCT-116 colon
SK-MEL-28 melanoma = tested on: SK-MEL-28 melanoma
MCF7 breast = tested on: MCF7 breast
LOX IMVI melanoma = tested on: LOX IMVI melanoma
SR leukemia = tested on: SR leukemia
HCC-2998 colon = tested on: HCC-2998 colon
NCI/ADR-RES ovarian = tested on: NCI/ADR-RES ovarian
CCRF-CEM leukemia = tested on: CCRF-CEM leukemia
COLO 205 colon = tested on: COLO 205 colon
MDA-MB-435 = tested on: MDA-MB-435
SK-OV-3 ovarian = tested on: SK-OV-3 ovarian

COC(=O)c1c(C)cccc1/C=C1\Cc2ccc(C)c(C)c2C1=O
TGI (OVCAR-8 ovarian): > 100 µM
TGI (A549 NSCLC): > 100 µM
TGI (RXF 393 renal): > 100 µM
TGI (EKVX NSCLC): > 100 µM
TGI (786-0 renal): > 100 µM
TGI (SK-MEL-5 melanoma): > 100 µM
TGI (HT29 colon): > 100 µM
TGI (SF-295 CNS): > 100 µM
TGI (SNB-75 CNS): > 100 µM
TGI (SK-MEL-2 melanoma): > 100 µM
TGI (NCI-H226 lung): > 100 µM
TGI (SF-268 CNS): > 100 µM
TGI (U251 CNS): > 100 µM
TGI (PC-3 prostate): > 100 µM
TGI (SNB-19 CNS): > 100 µM
TGI (CAKI-1 renal): > 100 µM
TGI (HOP-62 NSCLC): > 100 µM
TGI (ACHN renal): > 100 µM
TGI (NCI-H23 lung): > 100 µM
TGI (NCI-H522 lung): > 100 µM
TGI (NCI-H460 lung): > 100 µM
TGI (HL-60(TB) leukemia): > 100 µM
TGI (DU-145 prostate): > 100 µM
TGI (SN12C renal): > 100 µM
TGI (OVCAR-4 ovarian): > 100 µM
TGI (UACC-257 melanoma): > 100 µM
TGI (MDA-MB-231 breast): > 100 µM
TGI (MDA-N): > 100 µM
TGI (KM12 colon): > 100 µM
TGI (HCT-15 colon): > 100 µM
TGI (K-562 leukemia): > 100 µM
TGI (M14 melanoma): > 100 µM
TGI (A498 renal): > 100 µM
TGI (TK-10 renal): > 100 µM
TGI (HS 578T breast): > 100 µM
TGI (UACC-62 melanoma): > 100 µM
TGI (HOP-92 NSCLC): > 100 µM
TGI (OVCAR-5 ovarian): > 100 µM
TGI (UO-31 renal): > 100 µM
TGI (OVCAR-3 ovarian): > 100 µM
TGI (IGROV1 ovarian): > 100 µM
TGI (SF-539 CNS): > 100 µM
TGI (MOLT-4 leukemia): > 100 µM
TGI (RPMI-8226 leukemia): > 100 µM
TGI (T-47D breast): > 100 µM
TGI (SW-620 colon): > 100 µM
TGI (MALME-3M melanoma): > 100 µM
TGI (BT-549 breast): > 100 µM
TGI (HCT-116 colon): > 100 µM
TGI (SK-MEL-28 melanoma): > 100 µM
TGI (MCF7 breast): > 100 µM
TGI (LOX IMVI melanoma): > 100 µM
TGI (SR leukemia): > 100 µM
TGI (HCC-2998 colon): > 100 µM

CC(N)(CC(O)(C(F)(F)Cl)C(F)(F)Cl)C(=O)O (stereo unspecified)
TGI (OVCAR-8 ovarian): > 10 µM
TGI (A549 NSCLC): > 10 µM
TGI (EKVX NSCLC): > 10 µM
TGI (786-0 renal): > 10 µM
TGI (SK-MEL-5 melanoma): > 10 µM
TGI (HT29 colon): > 10 µM
TGI (SF-295 CNS): > 10 µM
TGI (SNB-75 CNS): > 10 µM
TGI (NCI-H226 lung): > 10 µM
TGI (SF-268 CNS): > 10 µM
TGI (U251 CNS): > 10 µM
TGI (NCI/ADR-RES ovarian): > 10 µM
TGI (PC-3 prostate): > 10 µM
TGI (SNB-19 CNS): > 10 µM
TGI (CAKI-1 renal): > 10 µM
TGI (HOP-62 NSCLC): > 10 µM
TGI (ACHN renal): > 10 µM
TGI (NCI-H23 lung): > 10 µM
TGI (NCI-H522 lung): > 10 µM
TGI (NCI-H460 lung): > 10 µM
TGI (DU-145 prostate): > 10 µM
TGI (SN12C renal): > 10 µM
TGI (OVCAR-4 ovarian): > 10 µM
TGI (UACC-257 melanoma): > 10 µM
TGI (MDA-MB-231 breast): > 10 µM
TGI (MDA-N): > 10 µM
TGI (KM12 colon): > 10 µM
TGI (HCT-15 colon): > 10 µM
TGI (K-562 leukemia): > 10 µM
TGI (M14 melanoma): > 10 µM
TGI (A498 renal): > 10 µM
TGI (TK-10 renal): > 10 µM
TGI (CCRF-CEM leukemia): > 10 µM
TGI (HS 578T breast): > 10 µM
TGI (UACC-62 melanoma): > 10 µM
TGI (COLO 205 colon): > 10 µM
TGI (HOP-92 NSCLC): > 10 µM
TGI (OVCAR-5 ovarian): > 10 µM
TGI (UO-31 renal): > 10 µM
TGI (OVCAR-3 ovarian): > 10 µM
TGI (IGROV1 ovarian): > 10 µM
TGI (SF-539 CNS): > 10 µM
TGI (MOLT-4 leukemia): > 10 µM
TGI (T-47D breast): > 10 µM
TGI (SW-620 colon): > 10 µM
TGI (MALME-3M melanoma): > 10 µM
TGI (BT-549 breast): > 10 µM
TGI (HCT-116 colon): > 10 µM
TGI (SK-MEL-28 melanoma): > 10 µM
TGI (MDA-MB-435): > 10 µM
TGI (MCF7 breast): > 10 µM
TGI (LOX IMVI melanoma): > 10 µM
TGI (SK-OV-3 ovarian): > 10 µM
TGI (SR leukemia): > 10 µM
TGI (HCC-2998 colon): > 10 µM

O=c1cc(Nc2cccc(O)c2)[nH]c(=O)[nH]1
TGI (OVCAR-8 ovarian): > 100 µM
TGI (A549 NSCLC): > 100 µM
TGI (RXF 393 renal): > 100 µM
TGI (EKVX NSCLC): > 100 µM
TGI (786-0 renal): > 100 µM
TGI (SK-MEL-5 melanoma): > 100 µM
TGI (HT29 colon): > 100 µM
TGI (SF-295 CNS): > 100 µM
TGI (SNB-75 CNS): > 100 µM
TGI (SK-MEL-2 melanoma): > 100 µM
TGI (NCI-H226 lung): > 100 µM
TGI (SF-268 CNS): > 100 µM
TGI (U251 CNS): > 100 µM
TGI (NCI/ADR-RES ovarian): > 100 µM
TGI (PC-3 prostate): > 100 µM
TGI (SNB-19 CNS): > 100 µM
TGI (CAKI-1 renal): > 100 µM
TGI (HOP-62 NSCLC): > 100 µM
TGI (ACHN renal): > 100 µM
TGI (NCI-H23 lung): > 100 µM
TGI (NCI-H522 lung): > 100 µM
TGI (NCI-H460 lung): > 100 µM
TGI (HL-60(TB) leukemia): > 100 µM
TGI (SN12C renal): > 100 µM
TGI (OVCAR-4 ovarian): > 100 µM
TGI (UACC-257 melanoma): > 100 µM
TGI (MDA-MB-231 breast): > 100 µM
TGI (MDA-N): > 100 µM
TGI (KM12 colon): > 100 µM
TGI (HCT-15 colon): > 100 µM
TGI (K-562 leukemia): > 100 µM
TGI (M14 melanoma): > 100 µM
TGI (A498 renal): > 100 µM
TGI (TK-10 renal): > 100 µM
TGI (CCRF-CEM leukemia): > 100 µM
TGI (HS 578T breast): > 100 µM
TGI (UACC-62 melanoma): > 100 µM
TGI (COLO 205 colon): > 100 µM
TGI (HOP-92 NSCLC): > 100 µM
TGI (OVCAR-5 ovarian): > 100 µM
TGI (UO-31 renal): > 100 µM
TGI (OVCAR-3 ovarian): > 100 µM
TGI (IGROV1 ovarian): > 100 µM
TGI (SF-539 CNS): > 100 µM
TGI (MOLT-4 leukemia): > 100 µM
TGI (RPMI-8226 leukemia): > 100 µM
TGI (T-47D breast): > 100 µM
TGI (SW-620 colon): > 100 µM
TGI (MALME-3M melanoma): > 100 µM
TGI (BT-549 breast): > 100 µM
TGI (HCT-116 colon): > 100 µM
TGI (SK-MEL-28 melanoma): > 100 µM
TGI (MDA-MB-435): > 100 µM
TGI (LOX IMVI melanoma): > 100 µM
TGI (SK-OV-3 ovarian): > 100 µM
TGI (SR leukemia): > 100 µM
TGI (HCC-2998 colon): > 100 µM
